In experiment [1] the test system is Ileum. Nature of the experiment: (§1) Spasmolytic activity in isolated guinea pig ileum assessed as spasmogen-induced inhibition of smooth muscle contraction at 10 ug. The experiment is classed as functional, Cavia porcellus. Also noted: scale not given: the % may be the effect or the level left.
The test system of experiment [2] is Ileum. The experiment is described as §1. The experiment is classed as functional, Cavia porcellus. Set-up: scale not given: the % may be the effect or the level left. The source holds these as a separate data set.
Experiment [3] concerns Ileum. Nature of the experiment: Spasmolytic activity in isolated guinea pig ileum assessed as spasmogen-induced inhibition of smooth muscle contraction. The note with it: Cavia porcellus. The class given is functional, tissue-based.

In brackets after ≈: the same amount, converted by molar mass.

Regarding `COc1cc2c(cc1OC)[C@H]1[C@@H](C)c3ccc4c(c3CN1CC2)OCO4` [CAVIDINE], the results for the Activity in experiment [1], in experiment [2] and in experiment [3] were 84%, 100% and “Dose-dependent effect”, respectively.
`COc1cc2c(cc1OC)C1(C(=O)c3ccc4c(c3[C@H]1O)OCO4)N(C)CC2` (stereo partly drawn) [YENHUSOMIDINE]: the Activity in experiment [1] was 17%; in experiment [2] it was 52%; in experiment [3], “Dose-dependent effect”. For the same compound, in experiment [3], the IC50 worked out at 0.5 µg/mL (≈ 1.3 µM).
For `COc1cc2c(cc1OC)-c1c(C)c3ccc4c(c3c[n+]1CC2)OCO4.[Cl-]` [DEHYDROCAVIDINE], the Activity in experiment [1] is 20%; in experiment [2], 40%; in experiment [3] it was “Dose-dependent effect”.
The like results for `COc1cc2c(cc1OC)[C@@H]([C@H]1OC(=O)c3c1ccc1c3OCO1)N(C)CC2` [CORLUMINE] were, in that order, 0%, 50% and “Dose-dependent effect”.

In general, IC50 refers to the concentration that inhibits the measured activity by half.

The values above are taken from ChEMBL document CHEMBL1145659, “The alkaloids of Corydalis meifolia” (J Nat Prod, 1983).
